# Patent publication US4248879A, “Benzopyranotriazoles” (Beecham Group Limited, priority 1978, dated 1981)
# Tests used:
# [1] = tested on: rat PCA; experiment: Passive Cutaneous Anaphylaxis (PCA) in rats; format: in vivo, Male Wistar rats; conditions: S.C.
# Experimental: Serum containing heat-labile homocytotropic antibody was raised in rats to crystallized ovalbumin XOA by the method of Mota (I. Mota, Immunology, 7, 681, (1964)) using Bordettela pertussis vaccine as adjuvant.
# Passive cutaneous anaphylaxis (PCA) was carried out by a method based on that of Ovary and Bier, (A. Ovary and O. G. Bier, Proc. Soc. Exp. Bio. Med 81, 584, (1952)) as modified by Goose and Blair. (Immunology 16, 749 (1969)).
# Male Wistar rats of 250-300 g were give 0.1 ml of each of six twofold serial dilutions of pooled antiserum in 0.9% saline injected intradermally into separate sites in their shaved backs. Later (72 hours) the animals were challenged by intravenous injection of 0.3 ml of a 1% solution of ovalbumin in an isotonic solution of saline buffered with 0.05 M, pH 7.2, Sorenson Buffer (PBS), mixed with 0.2 ml of a 5% solution of Pontamine Sky Blue (6BX C.I. 24410, Raymond A. Lamb, London) in isotonic saline. The rats were killed after 20 minutes and the diameter of the blue wheals at the antibody injection sites was measured on the outer surface of the skin. The starting dilution of the serum was adjusted so that there was no response, after challenge, at the injection site of the highest dilution and a maximum response at the lowest dilutions. Typically six twofold serial dilutions of the serum from 1/4 to 1/128 were used.
# Compounds were tested for their ability to reduce the diameter of the wheals at those intradermal sites which in control animals gave less than maximum response. Each dose of the compound was administered to six rats at a measured time prior to intravenous challenge with ovalbumin. Control groups of six rats were given the same volume (0.2 ml: 100 g^-1) of carrier fluid at the same time prior to the challenge.
# The results were calculated as follows: % inhibition of PCA=100 (1-a/b) where a=the sum of the diameters of the wheals produced in the test animal at the sites of antibody dilutions as used in control groups and b=the mean sum of the diameters of the wheals produced in the control group of animals at those antibody sites where at least five out of six of the animals gave less than maximum response. A typical variation in the control group of animals was SEM±6%.
# [2] = LD50 (toxicity) in mice; conditions: mouse, in vivo
# Experimental: The LD50 of the compound of Example 6 (d) is between 20 to 80 mg/kg i.v. and between 125 to 500 mg/kg per os, in mice.
# [3] = PBS with NaHCO3, 10 mins before antigen challenge, 10 mg/kg
# [4] = PBS with NaHCO3, 30 mins before antigen challenge, 10 mg/kg
# [5] = PBS with NaHCO3, 10 mins before antigen challenge, 20 mg/kg
# [6] = PBS with NaHCO3, 30 mins before antigen challenge, 20 mg/kg
# [7] = PBS with NaHCO3, 10 mins before antigen challenge, 5 mg/kg
# [8] = PBS with NaHCO3, 30 mins before antigen challenge, 5 mg/kg
smiles,measurement,setting,value
"Cc1cc(C)c2c(=O)c3[nH]nnc3oc2c1C [Example 7, 9-oxo-5,6,8-Trimethyl-1H,9H-benzopyrano[2,3-d]-v-triazole]",% Inhibitions of rat PCA,[1]; [3],40%
same,% Inhibitions of rat PCA,[1]; [4],18%
"Cc1ccc2c(=O)c3[nH]nnc3oc2c1C [Example 5, 5,6-Dimethyl-9-oxo-1H,9H-benzopyrano[2,3-d]-v-triazole]",% Inhibitions of rat PCA,[1]; [5],64%
same,% Inhibitions of rat PCA,[1]; [6],14%
Cc1cc2oc3nn[nH]c3c(=O)c2cc1C [Example 6d],% Inhibitions of rat PCA,[1]; [7],72%
same,% Inhibitions of rat PCA,[1]; [8],22%
same,LD50,[2]; iv,20 to 80 mg/kg
same,LD50,"[2]; po, per os",125 to 500 mg/kg
"O=c1c2ccccc2oc2nn[nH]c12 [Example 1, 9-Oxo-1H,9H-benzopyrano[2,3-d]-v-triazole]",% Inhibitions of rat PCA,[1]; [3],83%
same,% Inhibitions of rat PCA,[1]; [4],29%
"Cc1ccc2oc3nn[nH]c3c(=O)c2c1C [Example 6e, 7,8-dimethyl-1H,9H-benzopyrano[2,3-d]-v-triazole]",% Inhibitions of rat PCA,[1]; [7],86%
same,% Inhibitions of rat PCA,[1]; [8],45%
"COc1ccc2oc3nn[nH]c3c(=O)c2c1 [Example 4, 7-Methoxy-9-oxo-1H,9H-benzopyrano[2,3-d]-v-triazole]",% Inhibitions of rat PCA,[1]; [5],66%
same,% Inhibitions of rat PCA,[1]; [6],35%
"Cc1ccc2oc3nn[nH]c3c(=O)c2c1 [Example 3, 7-Methyl-9-oxo-1H,9H-benzopyrano[2,3]-v-triazole]",% Inhibitions of rat PCA,[1]; [3],78%
same,% Inhibitions of rat PCA,[1]; [4],41%
